Results on four molecules are retold here after patent US20120172401A1, “BENZIMIDAZOLE DERIVATIVE AND USE AS ANGIOTENSIN II ANTAGONIST” (Takeda Pharmaceutical Company Limited, priority 2005, published 2012).

Converted amounts (≈) assume the structure as drawn. Where two headings read alike, the source gives them in different places.

The subject of data set [1] is Angiotensin II (AII)-induced vasopressor action. The experiment in a line: Inhibitory effect on angiotensin II (AII)-induced vasopressor action in rat. Type of data set: in vivo. As to conditions: male SD rats, AII 100 ng/kg i.v., p.o., mean±SEM. As for the experimental part:
11-Week-old male SD rats (JCL: SD, CLEA Japan, Inc.) were anesthetized with pentobarbital (50 mg/kg, i.p.), the femoral artery and femoral vein were isolated, and a polyethylene tube filled with physiological saline containing heparin (200 U/mL) was placed therein. The catheter was subcutaneously fixed in the back of the neck. After recovery period, the rats were subjected to the test.
The arterial catheter was connected to a pressure transducer (2238, NEC San-ei Instruments) and the signals were output on a pen recorder (RECTI-HORIZ 8K, NEC San-ei Instruments) via an amplifier for blood pressure. After the vasopressor action of AII (100 ng/kg, i.v.) was stabilized, a test compound in an equimolar dose to compound A was administered. After 24 hrs, AII was administered, an increase in the blood pressure was measured, and an inhibition rate relative to the value before drug administration was calculated. All compounds were suspended in 0.5% methylcellulose and orally administered at a volume of 2 mL/kg.
The results are shown as mean±SEM (Table 6). The significance between the compound (I) administration group and other compound administration group was determined by the Student's t test (**: p<0.01, *: p<0.05).

The test system of a further data set is insulin sensitivity. Description: Enhancing effect on insulin sensitivity in rat (glucose clamp technique). The format is in vivo. As to conditions: spontaneously hypertensive rats, p.o. for 2 weeks, average glucose injection rate 50-90 min, mean±SEM. As for the experimental part:
24-Week-old male spontaneously hypertensive rats (SLC: SHR/Izm, Japan SLC, Inc.) were used. The body weight, systolic blood pressure, fasting blood glucose level, plasma insulin level and plasma triglyceride level of the rats were measured, and the rats were divided into a vehicle (0.5% methylcellulose solution) administration group and compound (I) (0.12, 0.37 and 1.23 mg/kg) administration groups using them as indices. Compound (I) was suspended in 0.5% methylcellulose solution and orally administered at a volume of 2 mL/kg for 2 weeks.
The insulin sensitivity was evaluated by the glucose clamp technique. To be specific, the rats after fasting overnight were anesthetized with pentobarbital sodium (Nembutal injection, Dainippon Pharmaceutical Co. Ltd., 50 mg/kg i.p.), and catheters (SP45, Natume Seisakusho Co., Ltd.) for blood sampling, insulin (novolin R/100, Novo Nordisk Pharma Co., Ltd.) infusion and glucose (Otsuka Glucose Injection 50%, Otsuka Pharmaceutical Co., Ltd.) infusion were each placed in the right common carotid artery, left femoral vein and right femoral vein. After single intravenous injection of 25 mU/kg of insulin, high insulin state was maintained by infusion using an infusion pump (KDS100, KDS) at an injection rate of 4 mU/kg/min. In addition, glucose in an amount necessary for maintaining the normal blood glucose level was intravenously infused using a different infusion pump (KDS100, KDS). Intravenous injection of glucose was started from 10 min after the start of the injection of insulin, and the glucose injection rate was changed after blood glucose measurement performed every 5 min. The blood glucose level then was quickly measured using a simple blood glucose measurement apparatus (ACCU-CHEK Comfort, Roche diagnostics). Glucose was infused for 90 min., the average value of the glucose injection rate was calculated for 40 min (from 50 min. to 90 min. after the start of the injection) and used as an index (M value) of insulin sensitivity.
The results are shown as mean±SEM (Table 7). […]

A short description of data set [2]: Solubility in JP1, JP2 and GCDC/JP2. Type of data set: physicochemical. The note with it: for solubility in comparison with compound X: in words; for solubility at 2 h: thermodynamic from solid, 37° C. As for the experimental part: About 2 mg of samples were suspended in 2 mL of JP1, JP2 and 20 mmol/L GCDC/JP2. The suspension was equilibrated at 37° C. for 2 hrs and filtered. The concentration in the solutions was determined by HPLC under the following conditions.
• Detector: UV 254 nm • Column: CAPCELLPAK C18 MG 75×4.6 mm • Mobile Phase A: 0.05 mol/L ammonium formate buffer (pH 3)/MeCN=9:1 • Mobile Phase B: 0.05 mol/L ammonium formate buffer (pH 3)/MeCN=1:9 • Gradient Program: 0→10 min 0→100% B) • 10→15 min 100% B) • 15.1→20 min 0% B) • Column Temp.: 40° C. • Flow Rate: 1 mL/min • Injection vol.: 10 gL

Data set [3] in a line: Membrane permeability by Parallel Artificial Membrane Permeability Assay (PAMPA). Type of data set: in vitro ADME. The note with it: for Papp at 3 h, 50 gmol/L: PAMPA; for permeability in comparison with compound X: in words. Here is the method: The permeability with the artificial membrane was determined by PAMPA under the following conditions. • lipid membrane: GIT mode (pION) • measurement wavelength: 250-400 nm • incubation time: 3 hrs • incubation temperature: 25° C. • Donor: […] 50 gmol/L

A short description of data set [4]: Heat stability of Form A crystal. The format is physicochemical. The note with it: in words.
The mark [5] stands for this setting: pH 1.2, simulated gastric fluid, JP1, read-out: Solubility JP1.
Setting [6] is: pH 6.8, fassgf or other biorelevant, 20 mmol/L GCDC/JP2, read-out: Solubility GCDC/JP2.
Setting [7] is: pH 6.8, fassgf or other biorelevant, JP2, read-out: Solubility JP2.
The mark [8] stands for this setting: pH 5.5, GIT mode lipid membrane, 3 hrs, 25° C., read-out: PAMPA pH 5.5.
Where [9] appears, read: pH 6.2, GIT mode lipid membrane, 3 hrs, 25° C., read-out: PAMPA PH 6.2.
The mark [10] stands for this setting: pH 7.4, GIT mode lipid membrane, 3 hrs, 25° C., read-out: PAMPA PH 7.4.

Turning to `Cc1oc(=O)oc1COC(=O)c1cccc2nc(C3CC3)n(Cc3ccc(-c4ccccc4-c4noc(=O)[nH]4)cc3)c12` [Compound (I), (5-Methyl-2-oxo-1,3-dioxol-4-yl)methyl 2-cyclopropyl-1-{[2′-(5-oxo-4,5-dihydro-1,2,4-oxadiazol-3-yl)biphenyl-4-yl]methyl}-1H-benzimidazole-7-carboxylate], the “suppression rate at 24 hrs after administration” value (“suppression rate at 24 hrs” for short) in data set [1] (0.12 mg/kg) came out at 20.2%. The M value is on record as 8.2 in the data set on insulin sensitivity (0.12 mg/kg), 9.0 with insulin sensitivity (0.37 mg/kg) and 9.8 in the data set on insulin sensitivity (1.23 mg/kg).
For the molecule `O=C(O)c1cccc2nc(C3CC3)n(Cc3ccc(-c4ccccc4-c4noc(=O)[nH]4)cc3)c12` [Compound A, 2-cyclopropyl-1-{[2′-(5-oxo-4,5-dihydro-1,2,4-oxadiazol-3-yl)biphenyl-4-yl]methyl}-1H-benzimidazole-7-carboxylic acid], the “solubility in comparison with compound X” value in data set [2] was “soluble”. The solubility at 2 h in data set [2] (setting [5]) is 0.13 mg/mL (≈ 287 µM); in data set [2] (setting [6]) it was 0.68 mg/mL (≈ 1500 µM); in data set [2] (setting [7]), 0.47 mg/mL (≈ 1040 µM). The Papp at 3 h, 50 gmol/L amounted to 130 nm/s in data set [3] (setting [8]) and 6.3 nm/s in data set [3] (setting [9]). Also, in data set [3], the “permeability in comparison with compound X” value was “less permeable”. Besides, the “PAMPA PH 7.4” value in data set [3] (pH 7.4, GIT mode lipid membrane, 3 hrs, 25° C.) was found to be 0 nm/s. For the same molecule, in data set [1] (0.10 mg/kg), the “suppression rate at 24 hrs” value was −6.0%.
Take `COC(=O)c1cccc2nc(C3CC3)n(Cc3ccc(-c4ccccc4-c4noc(=O)[nH]4)cc3)c12` [Compound B, methyl 2-cyclopropyl-1-{[2′-(5-oxo-4,5-dihydro-1,2,4-oxadiazol-3-yl)biphenyl-4-yl]methyl}-1H-benzimidazole-7-carboxylate]: the “solubility in comparison with compound X” value in data set [2] is “less soluble”. For the same molecule, the solubility at 2 h in data set [2] (setting [5]) was 0.16 mg/mL (≈ 343 µM); in data set [2] (setting [6]) it was 0.027 mg/mL (≈ 57.9 µM); in data set [2] (setting [7]) it was 0.0028 mg/mL (≈ 6 µM). In addition, the Papp at 3 h, 50 gmol/L in data set [3] (setting [8]) stood at 460 nm/s; in data set [3] (setting [9]) it was 200 nm/s; in data set [3] (setting [10]) it was 89 nm/s. In data set [3], the “permeability in comparison with compound X” value was “permeable”. The “suppression rate at 24 hrs” value in data set [1] (0.10 mg/kg) is listed as 2.6%.
Regarding `Cc1oc(=O)oc1COC(=O)c1cccc2nc(C3CC3)n(Cc3ccc(-c4ccccc4-c4noc(=O)[nH]4)cc3)c12` [Compound X, crystal of (5-methyl-2-oxo-1,3-dioxol-4-yl)methyl 2-cyclopropyl-1-{[2′-(5-oxo-4,5-dihydro-1,2,4-oxadiazol-3-yl)biphenyl-4-yl]methyl}-1H-benzimidazole-7-carboxylate], the solubility at 2 h in data set [2] (setting [5]) was 0.027 mg/mL (≈ 47.8 µM); in data set [2] (setting [6]) it was 0.052 mg/mL (≈ 92.1 µM); in data set [2] (setting [7]) it was 0.0083 mg/mL (≈ 14.7 µM). Besides, the Papp at 3 h, 50 gmol/L in data set [3] (setting [8]) worked out at 210 nm/s; in data set [3] (setting [9]), 190 nm/s; in data set [3] (setting [10]), 95 nm/s. Besides, in data set [4], the stability to heat entry was “stable to heat”.
